Test system: diethylnitrosamine-induced hepatocarcinogenic rats
Experiment: 1H-NMR-based serum metabolic profiling
Assay type: in vivo, albino Wistar rats
Conditions: rat serum
Procedure: All animals were randomly divided into five groups of six animals each. Drugs were suspended in 0.25% CMC, subjected to 28 days’ treatment orally and divided as follows: Group I: 0.25% CMC (2 ml/kg), Group II: DEN (8 mg/kg, intraperitoneally), Group III: DEN+5-fluorouracil (5-FU, 10 mg/kg, intraperitoneally), Group IV: DEN+M1 (50 mg/kg, orally) and Group V: DEN+M1 (100 mg/kg, orally). The procedure to induce HCC was adopted from a paper by Song et al. where it is shown that DEN produces HCC at 8 mg/kg intraperitoneal injection for 28 days to albino Wistar rats. After initial 1 week of adaptive inhabitation, all rats of group II–V were administered with DEN (8 mg/kg, intraperitoneally) for 28 days. After 28 days, 5-FU and M1 were given for 15 days as mentioned above for group III–V. At the end of the experimental period, animals were sacrificed by cervical decapitation and livers were dissected out immediately, rinsed in ice cold saline and stored at -20°C for further studies. The serum was collected, processed and stored for further analysis.
All serum samples were thawed at room temperature, 250 μl of serum was taken and mixed with 250 μl of 0.9% saline sodium-phosphate buffer of strength 50 mM, pH 7.4 prepared in D2O. Then, the samples were centrifuged at 10,000 rpm for 5 min to remove any precipitates before acquiring the NMR data. A total 400 μl of the supernatant sample was used in 5 mm NMR tubes (Wilmad Glass, USA) for data acquisition with a co-axial insert containing the known concentration of TSP (sodium salt of 3-trimethylsilyl-(2,2,3,3-d4)-propionic acid) i.e. 0.1% was used as external standard reference to aid metabolite quantification for NMR experiment. Deuterium oxide (D2O; as a co-solvent and to provide a deuterium field/frequency lock) and sodium salt of trimethylsilylpropionic acid-d4 (TSP) used for NMR experiments, were purchased from Sigma-Aldrich (RI, USA).
All NMR spectra were recorded at 298 K on Bruker Biospin Avance-III 800 MHz NMR spectrometer operating at proton frequency of 800.21 MHz, equipped with CryoProbe and an actively shielded gradient unit with a maximum gradient-strength output of […]. The raw NMR data were processed in Topspin-2.1 (Bruker NMR data Processing Software). For each serum sample, one-dimensional ^1H-NMR and diffusion edited ^1H NMR spectra were recorded using the Carr–Purcell–Meiboom–Gill (CPMG) pulse sequence (cpmgpr1d, standard Bruker pulse program) with pre-saturation of the water peak through irradiating it continuously during the recycle delay (RD) of 5 sec, and the bipolar pulse pair longitudinal eddy current delay (BPP-LED) sequence, respectively. Each CPMG spectrum consisted of the accumulation of 128 scans and lasted for approximately 15 minutes. To remove broad signals from triglycerides, proteins, cholesterols and phospholipids, a total spin–spin relaxation time of 60 ms (n = 300 and 2τ=[…]) with a line broadening factor of 0.3 Hz was applied. For diffusion edited (DE)^1H NMR pulse sequence, the square gradients of 70% of the maximum gradient strength (56 G/cm) and 2 ms duration (followed by a delay of 200 μs to allow for the decay of eddy currents) were used. Diffusion time of 120 ms was used to attenuate the signals from low molecular weight compounds without affecting the lipid signals. All the spectra were processed using Topspin-2.1 (Bruker NMR data Processing Software) using standard Fourier Transformation (FT) procedure following manual phase and baseline-correction. Prior to FT, each FID was zero-filled to 4096 data points and a sine-bell apodisation function was applied. After FT, the chemical shifts were referenced internally to methyl peak of L-lactate (at δ=1.33 ppm). All recorded spectra were visually inspected for acceptability and subjected to multivariate statistical analysis to identify the altered metabolic pattern. […]

## COc1cc2c(cc1OC)CC(C(=O)O)NC2 (stereo not shown) [M1, 6,7-dimethoxy-1,2,3,4-tetrahydro-isoquinoline-3-carboxylic acid]
DEN+M1 50 mg/kg orally
  Variation with respect to DEN: Acac (chemical shift 2.28): ↑
  Variation with respect to DEN: Ace (chemical shift 1.92): ↓
  Variation with respect to DEN: Acet (chemical shift 2.23): ↑
  Variation with respect to DEN: Ala (chemical shift 1.48): ↓
  Variation with respect to DEN: Betaine (chemical shift 3.265): ↓
  Variation with respect to DEN: Chol (chemical shift 3.22): ↓
  Variation with respect to DEN: Cit (chemical shift 2.52): ↑
  Variation with respect to DEN: Cr (chemical shift 3.03): ↑
  Variation with respect to DEN: L1 (LDL) (chemical shift 0.83–0.87): ↓
  Variation with respect to DEN: L2 (VLDL) (chemical shift 0.87–0.90): ↑
  Variation with respect to DEN: L3 (LDL) (chemical shift 1.23–1.27): ↓
  Variation with respect to DEN: L4 (VLDL) (chemical shift 1.27–1.30): ↑
  Variation with respect to DEN: L6 (chemical shift 2.00): ↓
  Variation with respect to DEN: L9 (chemical shift 5.28): ↓
  Variation with respect to DEN: Leu (chemical shift 0.96): ↑
  Variation with respect to DEN: Lys (chemical shift 1.89): ↓
  Variation with respect to DEN: NAG (chemical shift 2.02): ↑
  Variation with respect to DEN: OAG (chemical shift 2.13): ↑
  Variation with respect to DEN: Pyr (chemical shift 2.37): ↓
  Variation with respect to DEN: Tyr (chemical shift 6.89): ↓
DEN+M1 100 mg/kg orally
  Variation with respect to DEN: Acac (chemical shift 2.28): ↑
  Variation with respect to DEN: Ace (chemical shift 1.92): ↓
  Variation with respect to DEN: Acet (chemical shift 2.23): ↑
  Variation with respect to DEN: Ala (chemical shift 1.48): ↓
  Variation with respect to DEN: Betaine (chemical shift 3.265): ↓
  Variation with respect to DEN: Chol (chemical shift 3.22): ↓
  Variation with respect to DEN: Cit (chemical shift 2.52): ↑
  Variation with respect to DEN: Cr (chemical shift 3.03): ↓
  Variation with respect to DEN: ILeu (chemical shift 1.00): ↑
  Variation with respect to DEN: L1 (LDL) (chemical shift 0.83–0.87): ↓
  Variation with respect to DEN: L2 (VLDL) (chemical shift 0.87–0.90): ↑
  Variation with respect to DEN: L4 (VLDL) (chemical shift 1.27–1.30): ↑
  Variation with respect to DEN: Leu (chemical shift 0.96): ↑
  Variation with respect to DEN: Lys (chemical shift 1.89): ↓
  Variation with respect to DEN: NAG (chemical shift 2.02): ↑
  Variation with respect to DEN: Pyr (chemical shift 2.37): ↓
  Variation with respect to DEN: Tyr (chemical shift 6.89): ↓

Source: PMC5583658, “6,7-dimethoxy-1,2,3,4-tetrahydro-isoquinoline-3-carboxylic acid attenuates heptatocellular carcinoma in rats with NMR-based metabolic perturbations” (Future Science OA, 2017)
